{
  "source": "patent US8835134B2",
  "about": "“Cycloastragenol monoglucoside, preparation, pharmaceutical composition and application thereof” (Tianjin Institute of Pharmaceutical Research, priority 2007, dated 2014)",
  "test_system": "anesthetized open-chest dogs",
  "assay": "Hemodynamics of anesthetized open-chest dogs, intravenous infusion",
  "format": "in vivo, mongrel dogs",
  "details": "0.15 mg/kg iv",
  "protocol": "The animals were anesthetized by intravenous injection of 30 mg/kg sodium pentobarbital, tracheally intubated, and mechanically ventilated with positive air pressure. Left thoracotomy was performed through the fourth intercostal space and the heart was suspended in a pericardial cradle, the aortic root was isolated and a probe of blood flow meter (12 or 14 mm in diameter) was fixed to measure the aortic blood flow as a representation of cardiac output (CO), the circumflex branch of left coronary artery was isolated and a probe of blood flow meter (2 or 2.5 mm in diameter) was fixed to measure the coronary blood flow (CBF). A polyethylene catheter filled with heparin physiological saline was inserted through cardiac apex into the left ventricle to measure the left ventricular pressure (LVP) and left ventricular end-diastolic pressure (LVEDP), Peak positive and peak negative first derivatives of the LVP (+ LVdp/dt and − LVdp/dt) were calculated with the Acknowledge software. The systolic blood pressure (SBP), diastolic blood pressure (DBP) and mean arterial pressure (MAP) were measured by polyethylene catheter via the femoral artery, ECG □ was measured by a AC-601G ECG amplifier. The above-mentioned analog signal was input into a data acquisition workstation (MP100, BIOPAC Systems, USA) to a computer running Acknowledge (version 3.7.1).\nAfter surgery, various indexes before administration were recorded until the indexes were stable, and then intravenous infusion administration was conducted. Thirty dogs were divided into five groups (six dogs in each group), the experiment groups were given 0.15, 0.3, 0.6 mg/kg of ASP-[…] respectively, the normal control group was given 1 ml/kg of solvent, and the positive control group was given 0.3 mg/kg of astragaloside IV. The delivery volumes were 15 ml for each dog was and the delivery velocity was 1 ml/min. The indexes were recorded at 5, 10, 15, 20, 30, 45, 60, 90 and 120 mins after drug administration. At the end of experiment, the hearts were excised and weighted. The myocardial blood flow for per hectogram (CF), coronary resistance (CR), cardiac index (CI), left ventricular work (LVW) and total peripheral resistance (TPR) were calculated according to the following formulae: CF=CBF×[…]/heart weight CR=MAP/CF CI=CO/0.11×(body weight)^2/3 LVW=CO×(MAP−5)×1.052×0.0136 TPR=MAP×79.92/CO\nData are expressed as mean±SD ( x±s), the paired t-test was used to compare the significance between before and after administration, the unpaired t-test was adopted for comparison between groups.",
  "data": [
    {"smiles": "CC(C)(O)[C@@H]1CC[C@](C)([C@H]2[C@@H](O)C[C@@]3(C)C4C[C@H](OC5OC(CO)C(O)C(O)C5O)C5C(C)(C)[C@@H](O)CC[C@@]56C[C@@]46CC[C@]23C)O1", "note": "(stereo partly drawn) [CMG, Cycloastragenol-6-O-β-D-glucoside]", "values": [
      {"measurement": "LVW", "setting": "20 min after administration", "value": "1.04 ± 0.23", "unit": "kg · m"},
      {"measurement": "LVW change vs before administration", "setting": "20 min after administration", "value": "(−0.08 ± 0.21) kg · m"},
      {"measurement": "TPR", "setting": "20 min after administration", "value": "4882 ± 1971", "unit": "dyn · s/cm^5"},
      {"measurement": "TPR change vs before administration", "setting": "20 min after administration", "value": "(−268 ± 672) dyn · s/cm^5"},
      {"measurement": "dp/dt", "setting": "20 min after administration", "value": "1144 ± 452", "unit": "mmHg/s"},
      {"measurement": "dp/dt change vs before administration", "setting": "20 min after administration", "value": "(−6 ± 113) mmHg/s"},
      {"measurement": "−dp/dt", "setting": "20 min after administration", "value": "−830 ± 277", "unit": "mmHg/s"},
      {"measurement": "−dp/dt change vs before administration", "setting": "20 min after administration", "value": "(58 ± 77) mmHg/s"},
      {"measurement": "CF", "setting": "30 min after administration", "value": "52.5 ± 16.9", "unit": "ml/min/100 g"},
      {"measurement": "CF change vs before administration", "setting": "30 min after administration", "value": "(−5.2 ± 7.9) ml/min/100 g"},
      {"measurement": "CI", "setting": "30 min after administration", "value": "1.98 ± 0.44", "unit": "L/min/m^2"},
      {"measurement": "CI change vs before administration", "setting": "30 min after administration", "value": "(−0.10 ± 0.27) L/min/m^2"},
      {"measurement": "CO", "setting": "30 min after administration", "value": "1.14 ± 0.24", "unit": "L/min"},
      {"measurement": "CO change vs before administration", "setting": "30 min after administration", "value": "(−0.07 ± 0.16) L/min"},
      {"measurement": "CR", "setting": "30 min after administration", "value": "1.38 ± 0.38", "unit": "mmHg/ml/min/100 g"},
      {"measurement": "CR change vs before administration", "setting": "30 min after administration", "value": "(0.02 ± 0.13) mmHg/ml/min/100 g"},
      {"measurement": "LVEDP", "setting": "30 min after administration", "value": "1.2 ± 2.4", "unit": "mmHg"},
      {"measurement": "LVEDP change vs before administration", "setting": "30 min after administration", "value": "(−0.58 ± 0.46) mmHg"},
      {"measurement": "LVP", "setting": "30 min after administration", "value": "100 ± 21", "unit": "mmHg"},
      {"measurement": "LVP change vs before administration", "setting": "30 min after administration", "value": "(−5.0 ± 7.3) mmHg"},
      {"measurement": "LVW", "setting": "30 min after administration", "value": "1.01 ± 0.26", "unit": "kg · m"},
      {"measurement": "LVW change vs before administration", "setting": "30 min after administration", "value": "(−0.11 ± 0.27) kg · m"},
      {"measurement": "TPR", "setting": "30 min after administration", "value": "5045 ± 2043", "unit": "dyn · s/cm^5"},
      {"measurement": "TPR change vs before administration", "setting": "30 min after administration", "value": "(−105 ± 498) dyn · s/cm^5"},
      {"measurement": "dp/dt", "setting": "30 min after administration", "value": "1170 ± 425", "unit": "mmHg/s"},
      {"measurement": "dp/dt change vs before administration", "setting": "30 min after administration", "value": "(20 ± 157) mmHg/s"},
      {"measurement": "−dp/dt", "setting": "30 min after administration", "value": "−863 ± 258", "unit": "mmHg/s"},
      {"measurement": "−dp/dt change vs before administration", "setting": "30 min after administration", "value": "(25 ± 79) mmHg/s"},
      {"measurement": "CF", "setting": "45 min after administration", "value": "51.6 ± 17.1", "unit": "ml/min/100 g"},
      {"measurement": "CF change vs before administration", "setting": "45 min after administration", "value": "(−6.1 ± 8.1) ml/min/100 g"},
      {"measurement": "CI", "setting": "45 min after administration", "value": "2.02 ± 0.45", "unit": "L/min/m^2"},
      {"measurement": "CI change vs before administration", "setting": "45 min after administration", "value": "(−0.06 ± 0.43) L/min/m^2"},
      {"measurement": "CO", "setting": "45 min after administration", "value": "1.16 ± 0.22", "unit": "L/min"},
      {"measurement": "CO change vs before administration", "setting": "45 min after administration", "value": "(−0.04 ± 0.25) L/min"},
      {"measurement": "CR", "setting": "45 min after administration", "value": "1.42 ± 0.39", "unit": "mmHg/ml/min/100 g"},
      {"measurement": "CR change vs before administration", "setting": "45 min after administration", "value": "(0.07 ± 0.20) mmHg/ml/min/100 g"},
      {"measurement": "LVEDP", "setting": "45 min after administration", "value": "1.3 ± 2.2", "unit": "mmHg"},
      {"measurement": "LVEDP change vs before administration", "setting": "45 min after administration", "value": "(−0.5 ± 0.44) mmHg"},
      {"measurement": "LVP", "setting": "45 min after administration", "value": "101 ± 19", "unit": "mmHg"},
      {"measurement": "LVP change vs before administration", "setting": "45 min after administration", "value": "(−3.6 ± 4.6) mmHg"},
      {"measurement": "LVW", "setting": "45 min after administration", "value": "1.06 ± 0.31", "unit": "kg · m"},
      {"measurement": "LVW change vs before administration", "setting": "45 min after administration", "value": "(−0.06 ± 0.32) kg · m"},
      {"measurement": "TPR", "setting": "45 min after administration", "value": "4951 ± 1731", "unit": "dyn · s/cm^5"},
      {"measurement": "TPR change vs before administration", "setting": "45 min after administration", "value": "(−199 ± 925) dyn · s/cm^5"},
      {"measurement": "dp/dt", "setting": "45 min after administration", "value": "1164 ± 356", "unit": "mmHg/s"},
      {"measurement": "dp/dt change vs before administration", "setting": "45 min after administration", "value": "(14 ± 86) mmHg/s"},
      {"measurement": "−dp/dt", "setting": "45 min after administration", "value": "−854 ± 259", "unit": "mmHg/s"},
      {"measurement": "−dp/dt change vs before administration", "setting": "45 min after administration", "value": "(34 ± 80) mmHg/s"},
      {"measurement": "CF", "setting": "60 min after administration", "value": "51.8 ± 15.0", "unit": "ml/min/100 g"},
      {"measurement": "CF change vs before administration", "setting": "60 min after administration", "value": "(−5.9 ± 9.9) ml/min/100 g"},
      {"measurement": "CI", "setting": "60 min after administration", "value": "1.92 ± 0.42", "unit": "L/min/m^2"},
      {"measurement": "CI change vs before administration", "setting": "60 min after administration", "value": "(−0.16 ± 0.37) L/min/m^2"},
      {"measurement": "CO", "setting": "60 min after administration", "value": "1.11 ± 0.21", "unit": "L/min"},
      {"measurement": "CO change vs before administration", "setting": "60 min after administration", "value": "(−0.10 ± 0.23) L/min"},
      {"measurement": "CR", "setting": "60 min after administration", "value": "1.38 ± 0.36", "unit": "mmHg/ml/min/100 g"},
      {"measurement": "CR change vs before administration", "setting": "60 min after administration", "value": "(0.03 ± 0.16) mmHg/ml/min/100 g"},
      {"measurement": "LVEDP", "setting": "60 min after administration", "value": "1.3 ± 2.1", "unit": "mmHg"},
      {"measurement": "LVEDP change vs before administration", "setting": "60 min after administration", "value": "(−0.46 ± 0.41) mmHg"},
      {"measurement": "LVP", "setting": "60 min after administration", "value": "101 ± 19", "unit": "mmHg"},
      {"measurement": "LVP change vs before administration", "setting": "60 min after administration", "value": "(−4.1 ± 4.9) mmHg"},
      {"measurement": "LVW", "setting": "60 min after administration", "value": "1.00 ± 0.34", "unit": "kg · m"},
      {"measurement": "LVW change vs before administration", "setting": "60 min after administration", "value": "(−0.12 ± 0.33) kg · m"},
      {"measurement": "TPR", "setting": "60 min after administration", "value": "5112 ± 1599", "unit": "dyn · s/cm^5"},
      {"measurement": "TPR change vs before administration", "setting": "60 min after administration", "value": "(−38 ± 811) dyn · s/cm^5"},
      {"measurement": "dp/dt", "setting": "60 min after administration", "value": "1126 ± 375", "unit": "mmHg/s"},
      {"measurement": "dp/dt change vs before administration", "setting": "60 min after administration", "value": "(−24 ± 57) mmHg/s"},
      {"measurement": "−dp/dt", "setting": "60 min after administration", "value": "−841 ± 249", "unit": "mmHg/s"},
      {"measurement": "−dp/dt change vs before administration", "setting": "60 min after administration", "value": "(47 ± 92) mmHg/s"},
      {"measurement": "CF", "setting": "90 min after administration", "value": "53.7 ± 14.3", "unit": "ml/min/100 g"},
      {"measurement": "CF change vs before administration", "setting": "90 min after administration", "value": "(−4.0 ± 10.4) ml/min/100 g"},
      {"measurement": "CI", "setting": "90 min after administration", "value": "1.83 ± 0.36", "unit": "L/min/m^2"},
      {"measurement": "CI change vs before administration", "setting": "90 min after administration", "value": "(−0.25 ± 0.39) L/min/m^2"},
      {"measurement": "CO", "setting": "90 min after administration", "value": "1.06 ± 0.20", "unit": "L/min"}
    ]}
  ]
}
